The values that follow are results of earlier work, collected in patent publication US20140248600A1, “BLOOD TREATMENT APPARATUS ADAPTED TO PRESERVE PARTS THEREOF” (Gambro Lundia AB, priority 2011, published 2014).

The test system of the data set is C. albicans. The following applies: resulting pH: acetic acid 3.6; citric acid 2.4; succinic acid 2.8; tartaric acid 2.3; fumaric acid 2.6; maleic acid 2.0; control pH 5.5.
On to `CC(=O)O` [acetic acid], for which the “Growth of C. albicans with acid added to the medium” value (from here on “Growth of C. albicans”) was “grew as well as the control”.
With `O=C(O)C(O)C(O)C(=O)O` (stereo not drawn) [tartaric acid], the “Growth of C. albicans” value is listed as “grew as well as the control”.
As to `O=C(O)CCC(=O)O` [succinic acid], the “Growth of C. albicans” value was “grew as well as the control”.
With `O=C(O)/C=C\C(=O)O` [maleic acid], the “Growth of C. albicans” value is recorded as “inhibition of growth”.
For the molecule `O=C(O)/C=C/C(=O)O` [fumaric], the “Growth of C. albicans” value was “inhibition of growth”.
For `O=C(O)CC(O)(CC(=O)O)C(=O)O` [citric acid], the “Growth of C. albicans” value was “grew as well as the control”.
